Experimental data taken from article PMC8305236, “New Broth Macrodilution Volatilization Method for Antibacterial Susceptibility Testing of Volatile Agents and Evaluation of Their Toxicity Using Modified MTT Assay In Vitro” (Molecules, 2021).
Converted amounts (≈) assume the structure as drawn. Like-named read-outs stand apart in the source and are kept apart here.

Legend:
[1] = system: healthy human lung MRC-5 cell lines; design: method as in PMID 28223069; details: cited from earlier work
[2] = system: Streptococcus pyogenes ATCC 19615; assay: broth macrodilution volatilization method (liquid and vapor phase MIC); format: cell-based; details: for MIC: Streptococcus pyogenes, ATCC19615
Text: (§1) The following four bacterial standard strains from the American Type Culture Collection (ATCC, Manassas, VA, USA) were used: Haemophilus influenzae ATCC 49247, Staphylococcus aureus ATCC 29213, Streptococcus pneumoniae ATCC 49619, and Streptococcus pyogenes ATCC 19615. Cultivation and assay media (broth/agar) were Mueller–Hinton (MH) complemented by Haemophilus Tested Medium (H. influenzae), MH (S. aureus), and Brain Heart Infusion (S. pneumoniae and S. pyogenes). The pH of the broths was equilibrated to a final value of 7.6 using Trizma base (Sigma-Aldrich, Praha, Czech Republic). […] cultivation media were purchased from Oxoid (Basingstoke, UK).
(§2) Stock cultures of bacterial strains were cultivated in broth medium at 37 °C for 24 h prior to testing. For the preparation of inoculum, the turbidity of the bacterial suspension was adjusted to 0.5 McFarland standard using a Densi-La-Meter II (Lachema, Brno, Czech Republic) to obtain a final concentration of 10^8 CFU/mL.
(§3) The antibacterial potential of volatile plant-derived compounds in the liquid and vapor phases was determined using a newly developed broth macrodilution volatilization method performed in standard 2 mL microtubes with snap caps (Eppendorf, Hamburg, Germany). Initially, each sample of compound was dissolved in DMSO at maximum concentration of 1% and diluted in the appropriate broth medium. […] The concentration of β-thujaplicin started from 1024 µg/mL and from 128 µg/mL for thymohydroquinone and thymoquninone. In the second step, 90 µL of melted agar was pipetted into rims on the caps (Figure 3a) and inoculated with 5 µL of bacterial suspension after agar solidification. Subsequently, the appropriate concentrations of each sample previously prepared in test tubes were pipetted into microtubes in a final volume of 1500 µL. Then, the microtubes were inoculated with 10 µL of bacterial suspension and closed properly (Figure 3b). Microtubes containing inoculated and non-inoculated media were prepared as growth and purity controls simultaneously. After incubation at 37 °C for 24 h, the MICs were evaluated by the visual assessment of bacterial growth after coloring metabolically active bacterial colonies with MTT dye. The respective volumes of 30 and 375 µL of MTT at a concentration of 600 µg/mL were pipetted into the caps and in the microtubes when the interface of color change from yellow to purple (relative to that of colors in control wells) was recorded in broth and agar (Figure 3c). […] The MIC values were determined as the lowest concentrations that inhibited bacterial growth compared with the compound-free control and are expressed in µg/mL. In the case of the vapor phase, the concentration was also expressed in µg/cm^3 as the weight of the volatile agent per volume unit of a microtube. […] The respective susceptibilities of H. influenzae, S. aureus, S. pneumoniae, and S. pyogenes to ampicillin, oxacillin, amoxicillin, and tetracycline were checked as positive antibiotic controls. All tests were performed as three independent experiments, each carried out in triplicate, and the results were presented as median/modal values. According to the widely accepted norm in MIC testing, the mode and median were used for the final value calculation when triplicate endpoints were within the two- and three-dilution ranges, respectively.

[3] = system: Staphylococcus aureus ATCC 29213; assay: as above; format: cell-based
Text: as §1, §2, §3

[4] = system: Haemophilus influenzae ATCC 49247; assay: as above; format: cell-based
Text: as §1, §2, §3

[5] = system: Streptococcus pneumoniae ATCC 49619; assay: as above; format: cell-based; details: for MIC: Streptococcus pneumoniae, ATCC49619
Text: as §1, §2, §3

respiratory pathogens = assay: broth macrodilution volatilization method, all four bacteria together; format: cell-based; details: mean value of minimal inhibitory concentrations in broth medium
Text: as §1, §2
The antibacterial potential of volatile plant-derived compounds in the liquid and vapor phases was determined using a newly developed broth macrodilution volatilization method performed in standard 2 mL microtubes with snap caps (Eppendorf, Hamburg, Germany). Initially, each sample of compound was dissolved in DMSO at maximum concentration of 1% and diluted in the appropriate broth medium. […] After incubation at 37 °C for 24 h, the MICs were evaluated by the visual assessment of bacterial growth after coloring metabolically active bacterial colonies with MTT dye. The respective volumes of 30 and 375 µL of MTT at a concentration of 600 µg/mL were pipetted into the caps and in the microtubes when the interface of color change from yellow to purple (relative to that of colors in control wells) was recorded in broth and agar (Figure 3c). […] The MIC values were determined as the lowest concentrations that inhibited bacterial growth compared with the compound-free control and are expressed in µg/mL. […]

S. aureus [6] = system: S. aureus; design: method as in PMID 28223069; details: cited from earlier work
S. aureus [7] = details: cited from earlier work
[8] = modified MTT cytotoxicity assay; details: human
Experimental: (§4) Lung fibroblast cell line MRC-5, obtained from ATCC, was propagated in Eagle’s Minimum Essential Medium (EMEM) supplemented with 10% fetal bovine serum (FBS), 2 mM glutamine, 10 µL/mL non-essential amino acids, and 1% penicillin–streptomycin solution (10,000 units/mL of penicillin and 10 mg/mL of streptomycin); all these components were purchased from Sigma-Aldrich. The cells were pre-incubated in 96-well microtiter plates at a density of 2.5 × 10^3 cells per well for 24 h at 37 °C in a humidified incubator in an atmosphere of 5% CO2 in air.
(§5) A modified method based on the metabolization of MTT to blue formazan by mitochondrial dehydrogenases in living lung cells previously described by Mosmann was used. The lung fibroblast cells were treated for 72 h with the tested compounds dissolved in DMSO at a maximum concentration of 1% and diluted in the EMEM medium supplemented with 10% FBS. Twelve two-fold serially diluted concentrations of these agents ranging from 512 to 0.25 µg/mL were prepared. The microtiter plates were covered with EVA capmats^TM at 37 °C in a humidified atmosphere of 5% CO2 in air and cultivated for 72 h. Thereafter, MTT reagent (1 mg/mL) in EMEM solution was added to each well and the plates were incubated for an additional 2 h at 37 °C in a humidified atmosphere of 5% CO2 in air. The media were removed, and the intracellular formazan product was dissolved in 100 µL of DMSO. […] The absorbance was measured at 555 nm using a Tecan Infinite M200 spectrometer (Tecan Group, Mannedorf, Switzerland), and the viability was calculated in comparison to that of the untreated control. Three independent experiments (two replicates each) were performed for each test. […] Furthermore, IC80 was calculated as equivalent to the MIC endpoint for comparison of microbiological and toxicological data. Therapeutic indices (TIs) were defined as the ratio of x¯ -IC80 and x¯ -MIC values with the aim of determining the amount of effective antibacterial agents with the quantity causing toxicity.

[9] = system: normal lung fibroblast cells MRC-5; assay: modified MTT cytotoxicity assay; details: for IC50: Homo sapiens, MRC5, 72 h, read-out: IC50 ± SD; for level of cytotoxic effect (WHO classification): classified by IC50 in lung fibroblast cells; for TI: therapeutic index, TI = IC80/x¯ -MIC
Experimental: as §4, §5

[10] = system: Trichophyton mentagrophytes; design: method as in PMID 16648950; details: disc volatilization method; cited from earlier work
[11] = system: normal IMR-90 lung fibroblasts; design: method as in PMID 20711342; details: at a concentration of 32.84 µg/mL; cited from earlier work
H. influenzae = system: H. influenzae; design: method as in PMID 28223069; details: cited from earlier work
S. pneumoniae [12] = system: S. pneumoniae; design: method as in PMID 28223069; details: cited from earlier work
S. pneumoniae [13] = system: S. pneumoniae; design: method as in PMID 31106894; details: cited from earlier work
S. pyogenes = system: S. pyogenes; design: method as in PMID 31106894; details: cited from earlier work
[14] = system: human lung cancer tissues; design: method as in PMID 25105411, doi:10.1177/1934578X1801301223, doi:10.15324/kjcls.2019.51.2.221; details: various types of human lung cancer tissues; cited from earlier work
oral microorganisms = system: oral microorganisms; design: method as in PMID 27681039; details: disc volatilization method; cited from earlier work
mouse fibroblasts = system: mouse fibroblasts; design: method as in PMID 17080016; details: cited from earlier work
[15] = liquid phase, 37 °C, 24 h, read-out: Minimal Inhibitory Concentration, Broth
[16] = vapor phase, 37 °C, 24 h, read-out: Minimal Inhibitory Concentration, Agar
[17] = vapor phase, weight of volatile agent per volume unit of microtube, read-out: Minimal Inhibitory Concentration, Agar
[18] = ATCC29213, liquid phase, 37 °C, 24 h, read-out: Minimal Inhibitory Concentration, Broth
[19] = ATCC29213, vapor phase, 37 °C, 24 h, read-out: Minimal Inhibitory Concentration, Agar
[20] = ATCC29213, vapor phase, weight of volatile agent per volume unit of microtube, read-out: Minimal Inhibitory Concentration, Agar
[21] = ATCC49247, liquid phase, 37 °C, 24 h, read-out: Minimal Inhibitory Concentration, Broth
[22] = ATCC49247, vapor phase, 37 °C, 24 h, read-out: Minimal Inhibitory Concentration, Agar
[23] = ATCC49247, vapor phase, weight of volatile agent per volume unit of microtube, read-out: Minimal Inhibitory Concentration, Agar
[24] = MRC-5 normal lung fibroblast cells

SMILES	MIC [2, 15] [µg/mL]	MIC [2, 16] [µg/mL]	MIC [2, 17] [µg/mL]	MIC [3, 18] [µg/mL]	MIC [3, 19] [µg/mL]	MIC [3, 20] [µg/mL]	MIC [4, 21] [µg/mL]	MIC [4, 22] [µg/mL]	MIC [4, 23] [µg/mL]	MIC [5, 15] [µg/mL]	MIC [5, 16] [µg/mL]	MIC [5, 17] [µg/mL]	x¯ -MIC (respiratory pathogens) [µg/mL]	IC80 at 72 h [8, 24] [µg/mL]	IC50 [9] [µg/mL]	level of cytotoxic effect (WHO classification) [9]	TI [9]	further results
CC1=CC(=O)C(C(C)C)=CC1=O [thymoquinone]	32 (≈ 195 µM)	32 (≈ 195 µM)	20 (≈ 122 µM)	8 (≈ 48.7 µM)	16 (≈ 97.4 µM)	10 (≈ 60.9 µM)	4 (≈ 24.4 µM)	8 (≈ 48.7 µM)	5 (≈ 30.4 µM)	16 (≈ 97.4 µM)	16 (≈ 97.4 µM)	10 (≈ 60.9 µM)	15	15 ± 4.46 (≈ 91.3 µM)	1.21 ± 0.24 (≈ 7.37 µM)	toxic	1.00	IC50 [1]: 1.70 µg/mL (≈ 10.4 µM); MIC, liquid phase (S. aureus [6]; liquid phase): 16 µg/mL (≈ 97.4 µM); MIC, vapor phase (S. aureus [6]; vapor phase): 16 µg/mL (≈ 97.4 µM); MIC (S. aureus [7]; S. aureus ATCC 29213 and ATCC 25923): 8 µg/mL (≈ 48.7 µM); vapor activity [10]: very potent vapor activity; effect on viability [11]: did not alter the viability; MIC, liquid phase (H. influenzae; liquid phase): 8 µg/mL (≈ 48.7 µM); MIC, vapor phase (H. influenzae; vapor phase): 8 µg/mL (≈ 48.7 µM); MIC, liquid phase (S. pneumoniae [12]; liquid phase): 16 µg/mL (≈ 97.4 µM); MIC, vapor phase (S. pneumoniae [12]; vapor phase): 32 µg/mL (≈ 195 µM)
CC(C)c1cccc(=O)c(O)c1 [β-thujaplicin]	64 (≈ 390 µM)	1020 (≈ 6240 µM)	640 (≈ 3900 µM)	64 (≈ 390 µM)	512 (≈ 3120 µM)	320 (≈ 1950 µM)	64 (≈ 390 µM)	512 (≈ 3120 µM)	320 (≈ 1950 µM)	64 (≈ 390 µM)	1020 (≈ 6240 µM)	640 (≈ 3900 µM)	64		4.15 ± 0.45 (≈ 25.3 µM)	moderate toxicity	3.36	MIC (S. pneumoniae [13]): 0.3 to 1 µg/mL; Minimal Inhibitory Concentration, Agar ([2]; vapor phase, 37 °C, 24 h): low antibacterial efficacy; Minimal Inhibitory Concentration, Agar ([5]; vapor phase, 37 °C, 24 h): low antibacterial efficacy; MIC (S. pyogenes): 0.3 to 1 µg/mL; IC50 [14]: 0.26 to 12.32 µg/mL; MIC (S. aureus [7]; various strains of S. aureus): 12.5 to 160 µg/mL; IC80 at 72 h [8]: 215 ± 9.71 µg/mL (≈ 1310 µM); growth-inhibitory effect in the gaseous phase (oral microorganisms): certain level of growth-inhibitory effect
Cc1cc(O)c(C(C)C)cc1O [thymohydroquinone]	32 (≈ 193 µM)	32 (≈ 193 µM)	20 (≈ 120 µM)	8 (≈ 48.1 µM)	16 (≈ 96.3 µM)	10 (≈ 60.2 µM)				16 (≈ 96.3 µM)	32 (≈ 193 µM)	20 (≈ 120 µM)	15	> 512	2.64 ± 0.33 (≈ 15.9 µM)	moderate toxicity	>34.13	MIC ([4]; ATCC49247, 24 h, read-out: Minimal Inhibitory Concentration, Agar): 8 µg/mL (≈ 48.1 µM); MIC ([4]; ATCC49247, 24 h, read-out: Minimal Inhibitory Concentration, Broth): 4 µg/mL (≈ 24.1 µM); MIC ([4]; ATCC49247, read-out: Minimal Inhibitory Concentration, Agar): 5 µg/mL (≈ 30.1 µM); MIC (S. aureus [7]; S. aureus ATCC 25923): 400 µg/mL (≈ 2410 µM); cell growth inhibition (mouse fibroblasts; at 10 µg/mL): 21%; cell growth inhibition (mouse fibroblasts; at 100 µg/mL): 63%
CN(C)[C@@H]1C(O)=C(C(N)=O)C(=O)[C@@]2(O)C(O)=C3C(=O)c4c(O)cccc4[C@@](C)(O)[C@H]3C[C@@H]12 [tetracycline, reference compound]	0.25 (≈ 0.563 µM)																	
